The results in this text go back to US20190099421A1, “CINNOLIN-4-AMINE COMPOUNDS AND THEIR USE IN TREATING CANCER” (AstraZeneca AB, priority 2016, published 2019).

The assay concerns the target T1, ATM (Homo sapiens, UniProt Q13315).
T1 construct: endogenous in cells; host or cells: HT29 cells (ECACC #85061109)
Description: Assay a): ATM cellular potency (pATM Ser1981 in irradiated HT29 cells). The format is cell-based. To be noted: 1 h compound incubation, X-ray irradiation ~600 cGy, pATM (Ser1981) staining 1 h later; read-out: Assay a) ATM Cell IC50. How it is done:
IC50 values were calculated using a smart fitting model in Genedata.
Most ATM molecules in the cell are rapidly phosphorylated on this site after doses of radiation as low as 0.5 Gy, and binding of a phosphospecific antibody is detectable after the introduction of only a few DNA double-strand breaks in the cell.
The rationale of the pATM assay is to identify inhibitors of ATM in cells. HT29 cells are incubated with test compounds for 1 hr prior to X-ray-irradiation. 1 h later the cells are fixed and stained for pATM (Ser1981). The fluorescence is read on the arrayscan imaging platform.
The following morning compounds of Formula (I) in 100% DMSO were added to assay plates by acoustic dispensing. After 1 h incubation at 37° C. and 5% CO2, plates (up to 6 at a time) were irradiated using the X-RAD 320 instrument (PXi) with equivalent to ˜600 cGy. Plates were returned to the incubator for a further 1 h. […] Then 20 μl of 0.1% Triton X100 in PBS was added and incubated for 20 minutes at r.t., to permeabalise cells. Then the plates were washed once with 50 μl/well PBS, using a Biotek EL405 plate washer.
After 1 h incubation at r.t., the plates were washed three times with 50 μl/well PBS, using a Biotek EL405 plate washer, and plates were sealed and kept in PBS at 4° C. until read. Plates were read using an ArrayScan VTI instrument, using an XF53 filter with 10× objective.

T1 sequence (Q13315 whole entry): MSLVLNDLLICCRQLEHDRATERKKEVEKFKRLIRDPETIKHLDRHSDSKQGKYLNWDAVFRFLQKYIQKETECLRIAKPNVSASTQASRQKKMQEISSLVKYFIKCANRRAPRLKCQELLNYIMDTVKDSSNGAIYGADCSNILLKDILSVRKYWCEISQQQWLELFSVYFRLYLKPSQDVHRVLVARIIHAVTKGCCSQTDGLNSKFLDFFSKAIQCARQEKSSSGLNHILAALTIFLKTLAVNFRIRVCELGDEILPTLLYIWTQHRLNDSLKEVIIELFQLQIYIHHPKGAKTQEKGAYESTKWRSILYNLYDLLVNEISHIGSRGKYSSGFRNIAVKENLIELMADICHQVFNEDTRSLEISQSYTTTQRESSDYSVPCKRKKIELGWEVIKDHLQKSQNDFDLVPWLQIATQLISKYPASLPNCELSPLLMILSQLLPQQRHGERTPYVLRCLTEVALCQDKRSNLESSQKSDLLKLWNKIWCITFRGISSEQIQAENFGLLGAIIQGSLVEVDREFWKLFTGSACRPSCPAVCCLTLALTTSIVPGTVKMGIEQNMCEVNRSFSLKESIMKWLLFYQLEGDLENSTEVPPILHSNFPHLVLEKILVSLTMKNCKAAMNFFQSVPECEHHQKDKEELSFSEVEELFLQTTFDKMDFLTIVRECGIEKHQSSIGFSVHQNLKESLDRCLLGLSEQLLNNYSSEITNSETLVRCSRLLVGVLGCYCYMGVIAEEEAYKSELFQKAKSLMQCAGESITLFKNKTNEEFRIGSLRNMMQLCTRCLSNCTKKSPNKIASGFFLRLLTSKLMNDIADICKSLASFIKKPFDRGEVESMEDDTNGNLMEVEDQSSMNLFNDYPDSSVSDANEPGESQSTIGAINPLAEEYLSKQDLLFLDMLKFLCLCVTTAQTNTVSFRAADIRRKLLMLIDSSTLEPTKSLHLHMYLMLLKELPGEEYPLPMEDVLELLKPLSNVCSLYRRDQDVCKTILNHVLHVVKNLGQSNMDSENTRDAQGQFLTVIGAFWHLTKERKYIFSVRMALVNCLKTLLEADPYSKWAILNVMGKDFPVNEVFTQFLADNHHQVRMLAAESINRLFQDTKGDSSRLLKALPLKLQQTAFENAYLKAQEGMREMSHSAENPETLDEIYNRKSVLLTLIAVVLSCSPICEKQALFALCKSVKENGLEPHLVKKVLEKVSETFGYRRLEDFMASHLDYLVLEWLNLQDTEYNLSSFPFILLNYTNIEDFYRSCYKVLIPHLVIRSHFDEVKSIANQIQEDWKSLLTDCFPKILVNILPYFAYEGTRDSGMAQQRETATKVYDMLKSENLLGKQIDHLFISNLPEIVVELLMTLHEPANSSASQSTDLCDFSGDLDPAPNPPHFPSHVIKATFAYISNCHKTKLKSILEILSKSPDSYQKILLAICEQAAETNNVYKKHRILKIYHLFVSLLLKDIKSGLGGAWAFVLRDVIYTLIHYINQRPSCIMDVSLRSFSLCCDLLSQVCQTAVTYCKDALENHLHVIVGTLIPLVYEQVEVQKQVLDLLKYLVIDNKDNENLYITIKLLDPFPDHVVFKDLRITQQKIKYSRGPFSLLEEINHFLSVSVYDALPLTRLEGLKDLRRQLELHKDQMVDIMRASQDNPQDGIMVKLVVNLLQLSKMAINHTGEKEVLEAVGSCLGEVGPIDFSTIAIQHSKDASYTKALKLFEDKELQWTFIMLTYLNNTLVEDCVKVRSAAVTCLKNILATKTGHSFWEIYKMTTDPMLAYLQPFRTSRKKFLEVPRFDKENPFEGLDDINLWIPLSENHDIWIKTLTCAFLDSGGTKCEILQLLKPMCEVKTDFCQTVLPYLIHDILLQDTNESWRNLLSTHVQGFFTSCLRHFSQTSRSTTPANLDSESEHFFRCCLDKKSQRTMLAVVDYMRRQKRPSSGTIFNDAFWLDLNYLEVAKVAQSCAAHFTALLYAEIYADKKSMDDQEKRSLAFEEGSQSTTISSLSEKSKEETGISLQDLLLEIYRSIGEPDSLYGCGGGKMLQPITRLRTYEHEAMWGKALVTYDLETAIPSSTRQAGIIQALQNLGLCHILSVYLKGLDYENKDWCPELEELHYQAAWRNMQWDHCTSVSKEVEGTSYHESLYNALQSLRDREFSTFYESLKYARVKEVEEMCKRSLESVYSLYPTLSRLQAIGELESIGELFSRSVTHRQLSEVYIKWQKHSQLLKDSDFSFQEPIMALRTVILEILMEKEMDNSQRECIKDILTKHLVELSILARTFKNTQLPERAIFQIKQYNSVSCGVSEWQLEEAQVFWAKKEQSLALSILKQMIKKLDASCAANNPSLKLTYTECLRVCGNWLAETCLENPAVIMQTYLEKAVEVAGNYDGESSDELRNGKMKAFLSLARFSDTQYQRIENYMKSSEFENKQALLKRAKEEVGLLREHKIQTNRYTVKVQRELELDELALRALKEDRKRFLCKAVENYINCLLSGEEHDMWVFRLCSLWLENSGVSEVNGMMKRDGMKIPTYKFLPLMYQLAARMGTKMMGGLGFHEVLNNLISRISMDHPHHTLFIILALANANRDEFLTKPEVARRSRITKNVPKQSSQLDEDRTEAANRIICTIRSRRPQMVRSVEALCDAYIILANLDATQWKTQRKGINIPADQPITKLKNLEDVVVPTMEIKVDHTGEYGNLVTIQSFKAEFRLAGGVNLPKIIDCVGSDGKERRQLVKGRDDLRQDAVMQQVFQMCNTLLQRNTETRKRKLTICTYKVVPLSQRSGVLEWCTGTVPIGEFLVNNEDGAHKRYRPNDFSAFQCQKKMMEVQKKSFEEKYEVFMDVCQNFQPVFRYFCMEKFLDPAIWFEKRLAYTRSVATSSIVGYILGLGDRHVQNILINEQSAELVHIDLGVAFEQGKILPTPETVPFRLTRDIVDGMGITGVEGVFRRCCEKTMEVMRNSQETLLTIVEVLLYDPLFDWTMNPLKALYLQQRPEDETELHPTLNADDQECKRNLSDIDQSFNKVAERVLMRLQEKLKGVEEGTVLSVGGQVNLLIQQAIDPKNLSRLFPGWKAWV

A word on the IC50: it is the point on the concentration scale where inhibition reaches its midpoint. In the case of `CNCCCOc1ccc(-c2ccc3nnc(C(N)=O)c(N[C@@H](C)C4CCOCC4)c3c2)cn1` [Example 4, 6-[6-(3-Methylaminopropoxy)pyridin-3-yl]-4-[[(1S)-1-(oxan-4-yl)ethyl]amino]cinnoline-3-carboxamide], the IC50 was 7.72 nM. To `CNCCCOc1ccc(-c2ccc3nnc(C(=O)NC)c(N[C@@H](C)C4CCOCC4)c3c2)cn1` [Example 5, N-Methyl-6-[6-(3-methylaminopropoxy)pyridin-3-yl]-4-[[(1S)-1-(oxan-4-yl)ethyl]amino]cinnoline-3-carboxamide] belongs 4.91 nM.
